The values below come from patent US9283226B2, “Pyrazole derivatives as protein kinase modulators” (Astex Therapeutics Ltd, priority 2003, dated 2016).

The test deals with T1, PKB-PIF fusion protein (Homo sapiens, UniProt P31751).
T1 construct: made in house
Put plainly: Measurement of PKB kinase inhibitory activity (IC50), radiometric filter plate assay. As to conditions: 0.6 nM enzyme, 30 μM ATP, 25 μM AKTide-2T substrate, 20 minutes. The class given is biochemical. How it is done: The reaction is allowed to proceed for 20 minutes before addition of excess orthophosphoric acid to quench activity. The reaction mixture is transferred to a phosphocellulose filter plate where the peptide binds and the unused ATP is washed away. After washing, scintillant is added and the incorporated activity measured by scintillation counting.

T1 sequence (P31751 with tags, fused parts or gaps limits assumed): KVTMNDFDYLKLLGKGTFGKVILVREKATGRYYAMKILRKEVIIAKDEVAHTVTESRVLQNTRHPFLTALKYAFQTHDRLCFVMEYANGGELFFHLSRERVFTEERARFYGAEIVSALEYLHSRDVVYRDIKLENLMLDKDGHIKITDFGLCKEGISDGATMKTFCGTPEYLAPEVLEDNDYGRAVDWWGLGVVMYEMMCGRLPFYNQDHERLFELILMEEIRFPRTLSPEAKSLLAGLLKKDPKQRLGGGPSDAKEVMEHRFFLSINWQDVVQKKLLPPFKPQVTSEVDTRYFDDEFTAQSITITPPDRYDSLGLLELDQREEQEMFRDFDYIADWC

What is called IC50 is the point on the concentration scale where inhibition reaches its midpoint. In the case of `CNC[C@@H](c1ccc(Cl)cc1)c1ccc(-c2cn[nH]c2)cc1` [Example 22, {2-(4-Chloro-phenyl)-2-[4-(1H-pyrazol-4-yl)-phenyl]-ethyl}-methyl-amine (R)], the IC50 is less than 1000 nM. `CNCC(c1ccccc1)c1ccc(-c2c[nH]nc2C)nc1` (centres unmarked) [Example 60] gave a concentration for half-maximal inhibition (IC50) of less than 5000 nM.
